In ChEMBL document CHEMBL1201862, “PubChem BioAssay data set” (2004):
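Results reflect a 48-hour exposure of cells in 96-well plates to compound at five concentrations. GI50 is the concentration that inhibits growth by half.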 Calls of active or inactive are those of the source. No stated cut-off is given here; in the data, active = GI50 up to about 1.1 µM and inactive = higher.

Columns and labels:
Experiment in all cases: growth of human tumour cells (NCI), 48 h
NCI-H226 = test system: NCI-H226
SK-MEL-5 = test system: SK-MEL-5
Malme-3M = test system: Malme-3M
SF-295 = test system: SF-295
SW-620 = test system: SW-620
MOLT-4 = test system: MOLT-4
MDA-MB-231 = test system: MDA-MB-231
U-251 = test system: U-251
NCI-H522 = test system: NCI-H522
K562 = test system: K562
SR = test system: SR
MDA-N = test system: MDA-N
786-0 = test system: 786-0
RXF 393 = test system: RXF 393
HT-29 = test system: HT-29
OVCAR-8 = test system: OVCAR-8
HCC 2998 = test system: HCC 2998
KM12 = test system: KM12
MCF7 = test system: MCF7
SNB-75 = test system: SNB-75

Row | SMILES | GI50 (NCI-H226) | GI50 (SK-MEL-5) | GI50 (Malme-3M) | GI50 (SF-295) | GI50 (SW-620) | GI50 (MOLT-4) | GI50 (MDA-MB-231) | GI50 (U-251) | GI50 (NCI-H522) | GI50 (K562) | GI50 (SR) | GI50 (MDA-N) | GI50 (786-0) | GI50 (RXF 393) | GI50 (HT-29) | GI50 (OVCAR-8) | GI50 (HCC 2998) | GI50 (KM12) | GI50 (MCF7) | GI50 (SNB-75)
1 | FC(F)(F)c1ccc2c(c1)nc(Cc1ccccc1)n2C[C@@H]1CCCN2CCCCC12 (stereo not given in full) | 19.2 µM (inactive) | 14.4 µM (inactive) | 15.2 µM (inactive) | 15.8 µM (inactive) | 21.7 µM (inactive) | 12.9 µM (inactive) | 14.2 µM (inactive) | 15.7 µM (inactive) | 14 µM (inactive) | 18.9 µM (inactive) | 10.1 µM (inactive) | 12.7 µM (inactive) | 13.9 µM (inactive) | 8.55 µM (inactive) | 12 µM (inactive) | 15.3 µM (inactive) | 4.68 µM (inactive) | 15.8 µM (inactive) | 14.1 µM (inactive) | 15.1 µM (inactive)
2 | O=C1N[C@@H]2c3c(Br)sc(Br)c3C(=O)[C@@H]2O1 | 9.66 µM (inactive) | 6.59 µM (inactive) | 2.59 µM (inactive) | 17.2 µM (inactive) | 1.96 µM (inactive) | 1.89 µM (inactive) | 2.41 µM (inactive) | 2.39 µM (inactive) | 0.703 µM (active) | 0.887 µM (active) | 1.81 µM (inactive) | 2.44 µM (inactive) | 7.11 µM (inactive) | 2.2 µM (inactive) | 1.9 µM (inactive) | 2.11 µM (inactive) | 3.69 µM (inactive) | 10.7 µM (inactive) | 3.98 µM (inactive) | 6.14 µM (inactive)
3 | Cc1cn(C2CC(N=[N+]=[N-])C(CO[Si](C)(C)C(C)(C)C)O2)c(=O)[nH]c1=O (stereo not given) | 14.9 µM (inactive) | 18.5 µM (inactive) | 14.3 µM (inactive) | 17.3 µM (inactive) | 16.9 µM (inactive) | 26.7 µM (inactive) | 13.6 µM (inactive) | 18.1 µM (inactive) | 16.8 µM (inactive) | 20.8 µM (inactive) | 23.3 µM (inactive) | 17 µM (inactive) | 15.6 µM (inactive) | 15.5 µM (inactive) | 16.8 µM (inactive) | 19.4 µM (inactive) | 12.6 µM (inactive) | 15.8 µM (inactive) | 18 µM (inactive) | 19.3 µM (inactive)
4 | C/C(=N/NC(=S)Nc1ccccc1Cl)c1cccc(/C(C)=N\NC(=S)Nc2ccccc2Cl)n1 | > 100 µM (inactive) | 12.4 µM (inactive) | 35.8 µM (inactive) | > 100 µM (inactive) | 11.1 µM (inactive) | 23.6 µM (inactive) | 12.2 µM (inactive) | 26.7 µM (inactive) | 46.7 µM (inactive) | 18.7 µM (inactive) | 5.66 µM (inactive) | > 100 µM (inactive) | 7.33 µM (inactive) | > 100 µM (inactive) | > 100 µM (inactive) | 11.3 µM (inactive) | > 100 µM (inactive) | 7.24 µM (inactive) | 15.1 µM (inactive) | > 100 µM (inactive)
5 | COC(=O)[C@H](C)NC(=O)[C@H](CSC)N1C(=O)N[C@@H](C(C)C)C1=O | > 100 µM (inactive) | > 100 µM (inactive) | 49 µM (inactive) | > 100 µM (inactive) | > 100 µM (inactive) | 32.7 µM (inactive) | > 100 µM (inactive) | > 100 µM (inactive) | > 100 µM (inactive) | 85.5 µM (inactive) | > 100 µM (inactive) | > 100 µM (inactive) | > 100 µM (inactive) | > 100 µM (inactive) | > 100 µM (inactive) | > 100 µM (inactive) | > 100 µM (inactive) | > 100 µM (inactive) | > 100 µM (inactive) | 12.5 µM (inactive)
6 | c1ccc2c(c1)CCc1[nH]c3c(c1-2)-c1ccccc1CC3 | 61.8 µM (inactive) | > 100 µM (inactive) | > 100 µM (inactive) | 39.5 µM (inactive) | 98.4 µM (inactive) | 35.6 µM (inactive) | 33.2 µM (inactive) | > 100 µM (inactive) | 96.4 µM (inactive) | 36.7 µM (inactive) | 38.7 µM (inactive) | 94 µM (inactive) | 83 µM (inactive) | 45.3 µM (inactive) | 32.3 µM (inactive) | > 100 µM (inactive) | 36 µM (inactive) | 48.2 µM (inactive) | 39.9 µM (inactive) | 80.5 µM (inactive)
7 | CS(=O)(=O)c1cc(=O)c2ccccc2s1 | 13.7 µM (inactive) | 14.3 µM (inactive) | 1.8 µM (inactive) | 13.7 µM (inactive) | 1.86 µM (inactive) | 1.72 µM (inactive) | 15 µM (inactive) | 19.7 µM (inactive) | 1.24 µM (inactive) | 1.33 µM (inactive) | 2.07 µM (inactive) | 4.46 µM (inactive) | 5.55 µM (inactive) | 3.91 µM (inactive) | 5.01 µM (inactive) | 2.93 µM (inactive) | 14 µM (inactive) | 15.5 µM (inactive) | 2.72 µM (inactive) | 16 µM (inactive)
